Assay [1] concerns MAGE levels in PC3 and DU145 cells. Put plainly: Lipid (MAGE) measurements in cancer cells. It is filed as cell-based, human. To be noted: 10 μM, 4 h in situ. The procedure: (§1) Inhibitors were dissolved in DMSO and diluted into media or buffer prior to cell or proteome treatment, respectively. For in vitro treatment, final DMSO concentration was 4%. For in situ treatments of cells for ABPP, lipid measurements, migration, cell-survival, and invasion assays, 2×10^6 cells were seeded in 6 cm dishes (˜100% confluency) 24 h prior to inhibitor pre-treatment (in DMSO at 0.1% final concentration) in serum-free media (3 mL) for the designated time before harvesting cells for ABPP or lipid measurements or before the initiation of migration, cell-survival, and invasion assays.
Lipid measurements were performed in cancer cells as previously described (Chiang et al., 2006). Briefly, frozen cell pellets from cells harvested after 4 h serum starvation were extracted in 2:1:1 chloroform:methanol:Tris buffer pH 8.0 by dounce homogenization with 10 nmol of internal standard C12 MAGE. The organic layer was removed, dried under N2, and resuspended in 120 μL of chloroform, and 30 μL was injected into an Agilent 1100-MSD LC-MS. MAGE levels were quantified by measuring the area under the peak and were normalized to the C12 MAGE internal standard.

Assay [2] deals with PC3 and DU145 cells. Put plainly: Serum-free cell survival assay (WST-1). The assay is classed as cell-based, human. The conditions noted are these: 10 μM, 4 h in situ. The procedure: as §1
(§2) Cell migration, cell survival, and invasion studies were performed as previously described (Nomura et al., 2010). Briefly, migration assays were performed in Transwell chambers (Corning) with 8 μm pore-sized membranes coated with 10 μg/mL collagen at 37° C. for LNCaP (24 h), PC3 (4 h) and DU145 cells (24 h), respectively. Cell survival assays were performed using the Cell Proliferation Reagent WST-1 (Roche) Invasion assays were conducted using the BD Matrigel Invasion Chambers per the manufacturer's protocol. Inhibitors were preincubated for the stated duration before seeding cells into migration, cell-survival, or invasion chambers. Prior to seeding the cells in these chambers, cells were serum-starved for 4 h. Inhibitors were also present during the migration, cell-survival, and invasion assays.

The subject of assay [3] is PC3 and DU145 cells. Put plainly: Invasion assay (Matrigel chambers). The assay is classed as cell-based, human. The conditions noted are these: 10 μM, 4 h in situ. The procedure: as §1, §2
The target in another assay is T1, KIAA1363 (Mus musculus, UniProt Q8BLF1).
T1 construct: ABPP analysis of KIAA1363 activity in mouse brain membrane proteome; from tissue; host or cells: mouse brain (membrane fraction)
T1 sequence (Q8BLF1 1-408): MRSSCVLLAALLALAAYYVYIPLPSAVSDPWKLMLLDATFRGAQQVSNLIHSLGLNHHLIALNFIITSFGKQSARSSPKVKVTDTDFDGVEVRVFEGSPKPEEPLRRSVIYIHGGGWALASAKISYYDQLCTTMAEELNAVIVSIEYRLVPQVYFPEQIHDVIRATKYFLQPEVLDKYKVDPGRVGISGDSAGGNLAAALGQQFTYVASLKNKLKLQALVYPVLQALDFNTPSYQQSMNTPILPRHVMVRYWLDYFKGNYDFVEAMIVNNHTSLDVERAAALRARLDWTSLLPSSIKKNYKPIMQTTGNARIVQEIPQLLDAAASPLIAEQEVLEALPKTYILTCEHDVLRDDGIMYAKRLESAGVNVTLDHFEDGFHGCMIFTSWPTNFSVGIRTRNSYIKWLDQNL
Put plainly: Gel-based competitive ABPP of KIAA1363 in mouse brain membrane proteome (FP-rhodamine). The assay is classed as biochemical. The procedure:
In various embodiments, the invention provides a method of inhibiting a serine hydrolase, comprising contacting the hydrolase with a compound of formula (I), e.g., a compound selected from set of compounds shown in Table 1, below. […] IC50 values were derived from ABPP analysis of KIAA1363 activity in mouse brain membrane proteome and are averages of three replicates. Inhibitors were added to the proteome for 30 min before addition of FP-rhodamine (1 μM, 30 min).
Tissues were Dounce-homogenized in PBS, pH 7.4, followed by a low-speed spin (1,400 g, 5 min) to remove debris. The supernatant was then subjected to centrifugation (100,000×g, 45 min) to provide the cytosolic fraction in the supernatant and the unsoluble fraction as a pellet. The pellet was washed and resuspended in PBS buffer by sonication. Total protein concentration in each fraction was determined using a protein assay kit (Bio-Rad). Samples were stored at −80° C. until use.
For ABPP experiments, cell lysate and tissue proteomes were treated with 1 μM FP-rhodamine for 30 min at room temperature (50 μL total reaction volume) as described previously (Nomura et al., 2010). Reactions were quenched with one volume of standard 4×SDS/PAGE loading buffer (reducing), separated by SDS/PAGE (10% acrylamide), and visualized in-gel with a Hitachi FMBio IIe flatbed fluorescence scanner (MiraiBio). Inhibitors were preincubated prior (30 min or 4 h at 37° C. in vitro or in situ, respectively) to the addition of FP-rhodamine.

A further assay deals with T2, AChE (Mus musculus, UniProt P21836).
T2 construct: 20 μg of cell lysate or mouse brain membrane proteome; from tissue; host or cells: mouse brain (membrane proteome)
T2 sequence (P21836 32-614): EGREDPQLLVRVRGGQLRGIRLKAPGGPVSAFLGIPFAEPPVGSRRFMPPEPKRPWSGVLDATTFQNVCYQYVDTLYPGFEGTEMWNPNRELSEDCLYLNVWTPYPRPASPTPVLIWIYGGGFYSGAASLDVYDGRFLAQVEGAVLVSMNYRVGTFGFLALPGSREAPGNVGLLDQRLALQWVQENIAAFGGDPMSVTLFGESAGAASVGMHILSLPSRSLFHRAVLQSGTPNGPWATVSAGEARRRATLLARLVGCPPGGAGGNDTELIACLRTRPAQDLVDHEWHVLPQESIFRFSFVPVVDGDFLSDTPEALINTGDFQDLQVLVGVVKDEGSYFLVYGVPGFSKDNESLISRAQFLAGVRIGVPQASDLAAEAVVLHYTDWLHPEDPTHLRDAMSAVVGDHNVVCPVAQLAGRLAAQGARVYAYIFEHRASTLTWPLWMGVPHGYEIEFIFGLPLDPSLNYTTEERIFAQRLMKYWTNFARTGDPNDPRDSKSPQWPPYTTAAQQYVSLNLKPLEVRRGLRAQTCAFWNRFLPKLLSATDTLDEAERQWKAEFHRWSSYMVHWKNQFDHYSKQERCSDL
Put plainly: AChE activity assay with acetylthiocholine in mouse brain proteome. To be noted: acetylthiocholine hydrolysis in mouse brain membrane proteome. It is filed as biochemical. The procedure: AChE activity was measured using a method similar to that described previously (Ellman et al., 1961). Briefly, 50 μL of 10 mM acetylthiocholine was added to 200 μL of PBS containing 2 mM DTNB and 20 μg of cell lysate or mouse brain membrane proteome. Absorbance was measured at 412 nm over 5 min, and the rate of product accumulation was calculated from the slope of the absorbance over time. For assays involving preincubation with inhibitors, the reactions were prepared without acetylthiocholine and JW480 was incubated at the indicated concentration for 30 min at 37° C. Acetylthiocholine was then added and the assay was carried out exactly as described above.

Where [4] appears, read: mouse brain membrane proteome, inhibitor 30 min before FP-rhodamine (1 μM, 30 min), averages of three replicates, read-out: IC50 (KIAA1363).
Setting [5] is: screened against KIAA1363, Table 1, read-out: IC50 values of less than 1 micromolar.
Where [6] appears, read: screened against KIAA1363, Table 1, read-out: IC50 values of around 10 nanomolar (most potent).

The results in this text go back to patent US9249128B2 (priority 2010, dated 2016).

Where two headings read alike, the source gives them in different places.

Regarding `CCCCOC[C@H]1CCCC[C@H]1COCCNC(=O)Oc1ccccc1F` [AS115, reference compound], the MAGE levels result in assay [1] is reported as “lower MAGE levels”. For the same compound, the “PC3 and DU145 serum-free cell survival” value with PC3 and DU145 cells [2] is “impair”. Further, the “PC3 and DU145 invasion” value with PC3 and DU145 cells [3] is recorded as “impair”.

As for `COc1ccc(CCNC(=O)Oc2c(C)ccc3ccccc23)cc1` [JW436, 2-methylnaphthalen-1-yl 4-methoxyphenethylcarbamate], on KIAA1363 (setting [4]), the IC50 turned out to be 3000 nM. With `COc1cccc(CCNC(=O)Oc2c(C)ccc3ccccc23)c1` [JW437, 2-methylnaphthalen-1-yl 3-methoxyphenethylcarbamate], the IC50 was 209 nM on KIAA1363 (setting [4]) and less than 1000 nM on KIAA1363 (setting [5]). As to `Cc1ccc2ccccc2c1OC(=O)NCCC(c1ccccc1)c1ccccc1` [JW438, 2-methylnaphthalen-1-yl (3,3-diphenylpropyl)carbamate], on KIAA1363 (setting [4]), the IC50 was more than 50000 nM. For `Cc1ccc2ccccc2c1OC(=O)NCC(c1ccccc1)c1ccccc1` [JW439, 2-methylnaphthalen-1-yl (2,2-diphenylethyl)carbamate], at KIAA1363 (setting [4]), the IC50 was more than 50000 nM. As to `CCOc1ccccc1OC(=O)NCCc1ccc(OC)cc1` [JW441, 2-ethoxyphenyl 4-methoxyphenethylcarbamate], at KIAA1363 (setting [4]), the IC50 is more than 10000 nM. Turning to `CCOc1ccccc1OC(=O)NCCc1cccc(OC)c1` [JW442, 2-ethoxyphenyl 3-methoxyphenethylcarbamate], the IC50 on KIAA1363 (setting [4]) is 1010 nM. Turning to `CCOc1ccccc1OC(=O)NCCC(c1ccccc1)c1ccccc1` [JW443, 2-ethoxyphenyl (3,3-diphenylpropyl)carbamate], the IC50 on KIAA1363 (setting [4]) came to 1830 nM. Still for that read-out and setting: with `CCOc1ccccc1OC(=O)NCC(c1ccccc1)c1ccccc1` [JW444, 2-ethoxyphenyl (2,2-diphenylethyl)carbamate] the figure was 1050 nM; with `O=C(NCCc1ccc(C(F)(F)F)cc1)Oc1ccc(-n2cccc2)cc1` [JW446, 4-(1H-pyrrol-1-yl)phenyl 4-(trifluoromethyl)phenethylcarbamate], more than 50000 nM.

On to `Cc1ccc2ccccc2c1OC(=O)NCCc1ccc(C(F)(F)F)cc1` [JW447, 2-methylnaphthalen-1-yl 4-(trifluoromethyl)phenethylcarbamate], for which the IC50 on KIAA1363 (setting [4]) was 858 nM. In the case of `CCOc1ccccc1OC(=O)NCCc1ccc(C(F)(F)F)cc1` [JW448, 2-ethoxyphenyl 4-(trifluoromethyl)phenethylcarbamate], the IC50 on KIAA1363 (setting [4]) was 293 nM; at KIAA1363 (setting [5]), less than 1000 nM. For `CC(C)c1ccccc1OC(=O)NCCc1ccc(F)cc1` [JW464, 2-isopropylphenyl 4-fluorophenethylcarbamate], the IC50 is 11.3 nM at KIAA1363 (setting [4]) and approximately 10 nM at KIAA1363 (setting [6]). Moreover, the “Cross-reactivity with AChE” value at AChE is recorded as “cross-reactivity”.

Turning to `COc1ccc(OC(=O)NCCc2ccc(F)cc2)c2ccccc12` [JW465, 4-methoxynaphthalen-1-yl 4-fluorophenethylcarbamate], the IC50 at KIAA1363 (setting [4]) is more than 50000 nM. Consider `Cc1ccc(C(C)C)c(OC(=O)NCCc2ccc(F)cc2)c1` [JW466, 2-isopropyl-5-methylphenyl 4-fluorophenethylcarbamate], for which the IC50 on KIAA1363 (setting [4]) is 197 nM; on KIAA1363 (setting [5]) it was less than 1000 nM. On to `C=CCc1ccccc1OC(=O)NCCc1ccc(F)cc1` [JW468, 2-allylphenyl 4-fluorophenethylcarbamate], for which, at KIAA1363 (setting [4]), the IC50 turned out to be 94.3 nM. For `CN(C)c1cccc(OC(=O)NCCc2ccc(F)cc2)c1` [JW469, 3-(dimethylamino)phenyl 4-fluorophenethylcarbamate], on KIAA1363 (setting [4]), the IC50 is 5160 nM. In the case of `O=C(NCCc1ccc(F)cc1)Oc1ccc(C2CCCCC2)cc1` [JW472, 4-cyclohexylphenyl 4-fluorophenethylcarbamate], the IC50 on KIAA1363 (setting [4]) is 119 nM; at KIAA1363 (setting [5]) it was less than 1000 nM. The matching figures for `O=C(NCCc1ccc(F)cc1)Oc1ccc(-c2ccccc2)cc1` [JW473, [1,1′-biphenyl]-4-yl 4-fluorophenethylcarbamate]: 955 nM and less than 1000 nM.

As to `O=C(NCCc1ccc(F)cc1)Oc1ccc(C2CCCC2)cc1` [JW474, 4-cyclopentylphenyl 4-fluorophenethylcarbamate], at KIAA1363 (setting [4]), the IC50 was determined as 795 nM. Turning to `COc1cccc(OC(=O)NCCc2ccc(F)cc2)c1OC` [JW477, 2,3-dimethoxyphenyl 4-fluorophenethylcarbamate], on KIAA1363 (setting [4]), the IC50 was more than 10000 nM. On to `CC(C)c1ccccc1OC(=O)NCCc1ccc2c(c1)OCO2` [JW481, 2-isopropylphenyl (2-(benzo[d][1,3]dioxol-5-yl)ethyl)carbamate], for which the IC50 was 11.3 nM on KIAA1363 (setting [4]) and approximately 10 nM at KIAA1363 (setting [6]). Take `CC(C)c1ccccc1OC(=O)NCCc1ccc(C(F)(F)F)cc1` [JW482, 2-isopropylphenyl 4-(trifluoromethyl)phenethylcarbamate]: the IC50 at KIAA1363 (setting [4]) is 9.4 nM; at KIAA1363 (setting [6]), approximately 10 nM.
